Experimental data taken from US9328122B2, “7-substituted Hanfangichin B derivative, and preparation method and use thereof” (HANGZHOU BENSHENG PHARMACEUTICAL CO., LTD., priority 2012, dated 2016).
Values after ≈ are worked out from the molar mass of the structure shown.

Assays:
tumor = experiment: Antitumor activity compared with fangchinoline, overall statement; type: cell-based; conditions: tumor type not specified
[1] = tested on: Jurkat (acute lymphoblastic leukemia) cells; experiment: MTT cell growth inhibition, leukemia cells; type: cell-based, human; conditions: Homo sapiens, Jurkat, 72 h, MTT
Source text: (§1) Leukemia cell lines: leukemia cell lines: K562adr (drug-resistant, chronic myeloid leukemia, CML), NB4 (acute promyelocytic leukemia, AML), Kasumi-1 (acute myeloid leukemia M2 type, AML-M2), Jurkat (acute lymphoblastic leukemia, ALL), all of which were donated by Cancer Research Institute of Zhejiang University, China; and H9 (acute lymphoblastic leukemia, ALL), which was purchased from China Center for Type Culture Collection.
(§2) Reagents: The standard sample of fangchinoline (FAN) was purchased from Ci Yuan Biotechnology Co., Ltd., Shaanxi, China; and the 7-substituted fangchinoline derivatives according to the present invention.
(§3) 6000 well-growing leukemia cells were obtained and inoculated into wells of a 96-well cell culture plate. The culture medium was a RPMI-1640 cell culture medium containing 10% fetal bovine serum. After adding the 7-substituted fangchinoline derivatives of different concentrations the next day and mixing uniformly, the plate was placed in a carbon dioxide cell incubator (5% CO2) at 37° C. and incubating for 72 hours. Then the viable cell concentration was determined by the MTT method.

[2] = tested on: H9 (acute lymphoblastic leukemia) cells; experiment: MTT cell growth inhibition, leukemia cells; type: cell-based, human; conditions: Homo sapiens, H9, 72 h, MTT
Source text: as §1, §2, §3

[3] = tested on: Kasumi-1 (acute myeloid leukemia M2 type) cells; experiment: MTT cell growth inhibition, leukemia cells; type: cell-based, human; conditions: Homo sapiens, Kasumi-1, 72 h, MTT
Source text: as §1, §2, §3

[4] = tested on: NB4 (acute promyelocytic leukemia) cells; experiment: MTT cell growth inhibition, leukemia cells; type: cell-based; conditions: Homo sapiens, NB4, 72 h, MTT
Source text: as §1, §2, §3

[5] = tested on: K562/ADR (K562adr, drug-resistant chronic myeloid leukemia) cells; experiment: MTT cell growth inhibition, leukemia cells; type: cell-based; conditions: Homo sapiens, K562/ADR, 72 h, MTT
Source text: as §1, §2, §3

[6] = tested on: CaEs-17 (esophageal cancer) cells; experiment: MTT cell growth inhibition, solid tumor cells; type: cell-based, human; conditions: Homo sapiens, CaEs17, CaEs-17, 72 h, MTT
Source text: (§4) Hep-2 (laryngeal carcinoma), A549 (human lung cancer), CaES-17 (esophageal cancer cell), PC-3 (prostate cancer), CNE (nasopharyngeal carcinoma cell) and SK-OV-3 (ovarian cancer cell), all of which were purchased from China Center For Type Culture Collection; RKO (human colon adenocarcinoma cell), MGC-803 (human gastric cancer cell), MG-63 (osteosarcoma), and U87-MG (malignant glioma cell), all of which were purchased from Fuxiang Bio-tech Co. Ltd., Shanghai, China; PANC-1 (pancreatic cancer), Becap37 (human breast cancer cell), Hela (human cervical cancer cell) and Hep G2 (human liver cancer cell), all of which were donated by Cancer Research Institute of Zhejiang University, China.
as §3, with “human solid tumor” for “leukemia”, “DMEM High Glucose” for “a RPMI-1640”, “serum. The plate was placed in a carbon dioxide cell incubator (5% CO2) at 37° C. and incubated for 24 hours.” for “serum.”, “added with” for “adding the”, “concentration” for “concentrations the next day”, “incubated” for “incubating”

[7] = tested on: PANC-1 (pancreatic cancer) cells; experiment: MTT cell growth inhibition, solid tumor cells; type: cell-based, human; conditions: Homo sapiens, PANC-1, 72 h, MTT
Source text: as §4
as §3, with “human solid tumor” for “leukemia”, “DMEM High Glucose” for “a RPMI-1640”, “serum. The plate was placed in a carbon dioxide cell incubator (5% CO2) at 37° C. and incubated for 24 hours.” for “serum.”, “added with” for “adding the”, “concentration” for “concentrations the next day”, “incubated” for “incubating”

[8] = tested on: CNE (nasopharyngeal carcinoma) cells; experiment: MTT cell growth inhibition, solid tumor cells; type: cell-based, human; conditions: Homo sapiens, CNE, 72 h, MTT
Source text: as §4
as §3, with “human solid tumor” for “leukemia”, “DMEM High Glucose” for “a RPMI-1640”, “serum. The plate was placed in a carbon dioxide cell incubator (5% CO2) at 37° C. and incubated for 24 hours.” for “serum.”, “added with” for “adding the”, “concentration” for “concentrations the next day”, “incubated” for “incubating”

[9] = tested on: SK-OV-3 (ovarian cancer) cells; experiment: MTT cell growth inhibition, solid tumor cells; type: cell-based, human; conditions: Homo sapiens, SK-OV-3, 72 h, MTT
Source text: as §4
as §3, with “human solid tumor” for “leukemia”, “DMEM High Glucose” for “a RPMI-1640”, “serum. The plate was placed in a carbon dioxide cell incubator (5% CO2) at 37° C. and incubated for 24 hours.” for “serum.”, “added with” for “adding the”, “concentration” for “concentrations the next day”, “incubated” for “incubating”

[10] = tested on: PC-3 (prostate cancer) cells; experiment: MTT cell growth inhibition, solid tumor cells; type: cell-based, human; conditions: Homo sapiens, PC-3, 72 h, MTT
Source text: as §4
as §3, with “human solid tumor” for “leukemia”, “DMEM High Glucose” for “a RPMI-1640”, “serum. The plate was placed in a carbon dioxide cell incubator (5% CO2) at 37° C. and incubated for 24 hours.” for “serum.”, “added with” for “adding the”, “concentration” for “concentrations the next day”, “incubated” for “incubating”

[11] = tested on: MGC-803 (human gastric cancer) cells; experiment: MTT cell growth inhibition, solid tumor cells; type: cell-based; conditions: MGC-803, 72 h, MTT
Source text: as §4
as §3, with “human solid tumor” for “leukemia”, “DMEM High Glucose” for “a RPMI-1640”, “serum. The plate was placed in a carbon dioxide cell incubator (5% CO2) at 37° C. and incubated for 24 hours.” for “serum.”, “added with” for “adding the”, “concentration” for “concentrations the next day”, “incubated” for “incubating”

[12] = tested on: Hep G2 (human liver cancer) cells; experiment: MTT cell growth inhibition, solid tumor cells; type: cell-based; conditions: Homo sapiens, HepG2, Hep G2, 72 h, MTT
Source text: as §4
as §3, with “human solid tumor” for “leukemia”, “DMEM High Glucose” for “a RPMI-1640”, “serum. The plate was placed in a carbon dioxide cell incubator (5% CO2) at 37° C. and incubated for 24 hours.” for “serum.”, “added with” for “adding the”, “concentration” for “concentrations the next day”, “incubated” for “incubating”

[13] = tested on: U87-MG (malignant glioma) cells; experiment: MTT cell growth inhibition, solid tumor cells; type: cell-based; conditions: Homo sapiens, U-87 MG, U87-MG, 72 h, MTT
Source text: as §4
as §3, with “human solid tumor” for “leukemia”, “DMEM High Glucose” for “a RPMI-1640”, “serum. The plate was placed in a carbon dioxide cell incubator (5% CO2) at 37° C. and incubated for 24 hours.” for “serum.”, “added with” for “adding the”, “concentration” for “concentrations the next day”, “incubated” for “incubating”

[14] = tested on: Becap-37 (human breast cancer) cells; experiment: MTT cell growth inhibition, solid tumor cells; type: cell-based; conditions: Homo sapiens, Becap-37, 72 h, MTT
Source text: as §4
as §3, with “human solid tumor” for “leukemia”, “DMEM High Glucose” for “a RPMI-1640”, “serum. The plate was placed in a carbon dioxide cell incubator (5% CO2) at 37° C. and incubated for 24 hours.” for “serum.”, “added with” for “adding the”, “concentration” for “concentrations the next day”, “incubated” for “incubating”

[15] = tested on: A549 (human lung cancer) cells; experiment: MTT cell growth inhibition, solid tumor cells; type: cell-based; conditions: Homo sapiens, A549, 72 h, MTT
Source text: as §4
as §3, with “human solid tumor” for “leukemia”, “DMEM High Glucose” for “a RPMI-1640”, “serum. The plate was placed in a carbon dioxide cell incubator (5% CO2) at 37° C. and incubated for 24 hours.” for “serum.”, “added with” for “adding the”, “concentration” for “concentrations the next day”, “incubated” for “incubating”

[16] = tested on: Hep-2 (laryngeal carcinoma) cells; experiment: MTT cell growth inhibition, solid tumor cells; type: cell-based; conditions: Homo sapiens, Hep-2, 72 h, MTT
Source text: as §4
as §3, with “human solid tumor” for “leukemia”, “DMEM High Glucose” for “a RPMI-1640”, “serum. The plate was placed in a carbon dioxide cell incubator (5% CO2) at 37° C. and incubated for 24 hours.” for “serum.”, “added with” for “adding the”, “concentration” for “concentrations the next day”, “incubated” for “incubating”

[17] = tested on: RKO (human colon adenocarcinoma) cells; experiment: MTT cell growth inhibition, solid tumor cells; type: cell-based; conditions: Homo sapiens, RKO, 72 h, MTT
Source text: as §4
as §3, with “human solid tumor” for “leukemia”, “DMEM High Glucose” for “a RPMI-1640”, “serum. The plate was placed in a carbon dioxide cell incubator (5% CO2) at 37° C. and incubated for 24 hours.” for “serum.”, “added with” for “adding the”, “concentration” for “concentrations the next day”, “incubated” for “incubating”

[18] = tested on: MG-63 (osteosarcoma) cells; experiment: MTT cell growth inhibition, solid tumor cells; type: cell-based; conditions: Homo sapiens, MG-63, 72 h, MTT
Source text: as §4
as §3, with “human solid tumor” for “leukemia”, “DMEM High Glucose” for “a RPMI-1640”, “serum. The plate was placed in a carbon dioxide cell incubator (5% CO2) at 37° C. and incubated for 24 hours.” for “serum.”, “added with” for “adding the”, “concentration” for “concentrations the next day”, “incubated” for “incubating”

[19] = tested on: Hela (human cervical cancer) cells; experiment: MTT cell growth inhibition, solid tumor cells; type: cell-based; conditions: Homo sapiens, Hela, 72 h, MTT
Source text: as §4
as §3, with “human solid tumor” for “leukemia”, “DMEM High Glucose” for “a RPMI-1640”, “serum. The plate was placed in a carbon dioxide cell incubator (5% CO2) at 37° C. and incubated for 24 hours.” for “serum.”, “added with” for “adding the”, “concentration” for “concentrations the next day”, “incubated” for “incubating”

COc1ccc2cc1Oc1ccc(cc1)C[C@H]1c3cc(c(OC)cc3CCN1C)Oc1c(OCC(O)CN3CCSCC3)c(OC)cc3c1[C@H](C2)N(C)CC3 (stereo partly drawn) [BS-FC-417]
antitumor activity compared with that of fangchinoline (tumor): significantly superior | IC50 ([1]; read-out: IC50): 1.24 µg/mL (≈ 1.61 µM) | IC90 ([1]; read-out: IC90): 5.47 µg/mL (≈ 7.12 µM) | IC50 ([2]; read-out: IC50): 1.3 µg/mL (≈ 1.69 µM) | IC90 ([2]; read-out: IC90): 3.6 µg/mL (≈ 4.69 µM) | IC50 ([3]; read-out: IC50): 1.45 µg/mL (≈ 1.89 µM) | IC90 ([3]; read-out: IC90): 3.63 µg/mL (≈ 4.73 µM) | IC50 ([4]; read-out: IC50): 0.99 µg/mL (≈ 1.29 µM) | IC90 ([4]; read-out: IC90): 2.86 µg/mL (≈ 3.72 µM) | IC50 ([5]; read-out: IC50): 0.19 µg/mL (≈ 0.247 µM) | IC90 ([5]; read-out: IC90): 2.15 µg/mL (≈ 2.8 µM) | IC50 ([6]; read-out: IC50): 1.82 µg/mL (≈ 2.37 µM) | IC90 ([6]; read-out: IC90): 7.67 µg/mL (≈ 9.99 µM) | IC50 ([7]; read-out: IC50): 5.55 µg/mL (≈ 7.23 µM) | IC90 ([7]; read-out: IC90): 9 µg/mL (≈ 11.7 µM) | IC50 ([8]; read-out: IC50): 1.66 µg/mL (≈ 2.16 µM) | IC90 ([8]; read-out: IC90): 5.24 µg/mL (≈ 6.82 µM) | IC50 ([9]; read-out: IC50): 4.6 µg/mL (≈ 5.99 µM) | IC90 ([9]; read-out: IC90): 12.9 µg/mL (≈ 16.8 µM) | IC50 ([10]; read-out: IC50): 3.68 µg/mL (≈ 4.79 µM) | IC90 ([10]; read-out: IC90): 9.36 µg/mL (≈ 12.2 µM) | IC50 ([11]; read-out: IC50): 1.49 µg/mL (≈ 1.94 µM) | IC90 ([11]; read-out: IC90): 12.9 µg/mL (≈ 16.8 µM) | IC50 ([12]; read-out: IC50): 1.8 µg/mL (≈ 2.34 µM) | IC90 ([12]; read-out: IC90): 5.79 µg/mL (≈ 7.54 µM) | IC50 ([13]; read-out: IC50): 1.49 µg/mL (≈ 1.94 µM) | IC90 ([13]; read-out: IC90): 4.25 µg/mL (≈ 5.53 µM) | IC50 ([14]; read-out: IC50): 2.42 µg/mL (≈ 3.15 µM) | IC90 ([14]; read-out: IC90): 6.16 µg/mL (≈ 8.02 µM) | IC50 ([15]; read-out: IC50): 3.77 µg/mL (≈ 4.91 µM) | IC90 ([15]; read-out: IC90): 11.7 µg/mL (≈ 15.2 µM) | IC50 ([16]; read-out: IC50): 2.36 µg/mL (≈ 3.07 µM) | IC90 ([16]; read-out: IC90): 6.03 µg/mL (≈ 7.85 µM) | IC50 ([17]; read-out: IC50): 1.09 µg/mL (≈ 1.42 µM) | IC90 ([17]; read-out: IC90): 2.27 µg/mL (≈ 2.96 µM) | IC50 ([18]; read-out: IC50): 2 µg/mL (≈ 2.6 µM) | IC90 ([18]; read-out: IC90): 3.6 µg/mL (≈ 4.69 µM) | IC50 ([19]; read-out: IC50): 1.73 µg/mL (≈ 2.25 µM) | IC90 ([19]; read-out: IC90): 4.47 µg/mL (≈ 5.82 µM)
